Patent publication US20260285850A1, “SUBSTITUTED OXAZOLIDINONES AND IMIDAZOLINONES AS HERBICIDES” (FMC CORPORATION, priority 2023, published 2026)

Legend:
Assay type in all cases: in vivo
[1] = system: barnyardgrass (Echinochloa crus-galli); test: Test A preemergence soil spray, visual injury rating 0-100; conditions: 10 days
Procedure, shortened: (§1)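 Greenhouse test: loam/sand pots received a surfactant-containing formulation, as a preemergence directed soil spray or a postemergence spray on young plants. Injury was judged visually at day 10 relative to untreated controls.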

[2] = system: blackgrass (Alopecurus myosuroides); test: as above; conditions: 10 days
Procedure, shortened: as §1

corn (Zea mays) [3] = test: as above; conditions: 10 days
Procedure, shortened: as §1

[4] = system: green foxtail (Setaria viridis); test: as above; conditions: 10 days
Procedure, shortened: as §1

kochia (Bassia scoparia) [5] = test: as above; conditions: 10 days
Procedure, shortened: as §1

[6] = system: oat, wild (wild oat, Avena fatua); test: as above; conditions: 10 days
Procedure, shortened: as §1

[7] = system: ragweed (common ragweed, Ambrosia artemisiifolia); test: as above; conditions: 10 days
Procedure, shortened: as §1

[8] = system: ryegrass, Italian (italian ryegrass, Lolium multiflorum); test: as above; conditions: 10 days
Procedure, shortened: as §1

soybean (Glycine max) [9] = test: as above; conditions: 10 days
Procedure, shortened: as §1

[10] = system: wheat (Triticum aestivum); test: as above; conditions: 10 days
Procedure, shortened: as §1

[11] = system: barnyardgrass (Echinochloa crus-galli); test: Test A postemergence application, visual injury rating 0-100
Procedure, shortened: as §1

[12] = system: blackgrass (Alopecurus myosuroides); test: as above
Procedure, shortened: as §1

corn (Zea mays) [13] = test: as above
Procedure, shortened: as §1

[14] = system: galium (catchweed bedstraw, Galium aparine); test: as above
Procedure, shortened: as §1

[15] = system: green foxtail (Setaria viridis); test: as above
Procedure, shortened: as §1

[16] = system: horseweed (Erigeron canadensis); test: as above
Procedure, shortened: as §1

kochia (Bassia scoparia) [17] = test: as above
Procedure, shortened: as §1

[18] = system: oat, wild (wild oat, Avena fatua); test: as above
Procedure, shortened: as §1

[19] = system: palmer (palmer amaranth, palmer pigweed, Amaranthus palmeri); test: as above
Procedure, shortened: as §1

[20] = system: ragweed (common ragweed, Ambrosia artemisiifolia); test: as above
Procedure, shortened: as §1

[21] = system: ryegrass, Italian (italian ryegrass, Lolium multiflorum); test: as above
Procedure, shortened: as §1

soybean (Glycine max) [22] = test: as above
Procedure, shortened: as §1

[23] = system: wheat (Triticum aestivum); test: as above
Procedure, shortened: as §1

[24] = system: barnyardgrass (Echinochloa crusgalli); test: Test B flooded paddy test, visual plant response rating 0-100; conditions: 250 g ai/ha, Flood, applied to paddy water, evaluated after 13 days
Procedure, shortened: (§2)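 Each species was raised to two leaves before flooding to a 3 cm depth and dosing the water with compound. Injury was assessed by eye after 13 days under greenhouse conditions.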

[25] = system: ducksalad (Heteranthera limosa); test: as above; conditions: 250 g ai/ha, Flood, applied to paddy water, evaluated after 13 days
Procedure, shortened: as §2

rice (Oryza sativa) = test: as above; conditions: 250 g ai/ha, Flood, applied to paddy water, evaluated after 13 days
Procedure, shortened: as §2

[26] = system: sedge, umbrella (small-flower umbrella sedge, Cyperus difformis); test: as above; conditions: 250 g ai/ha, Flood, applied to paddy water, evaluated after 13 days
Procedure, shortened: as §2

[27] = 62 g ai/ha, 0 = no effect, 100 = complete control
[28] = 62 g ai/ha, postemergence, 10 days, 0 = no effect, 100 = complete control
[29] = Postemergence, 16 g ai/ha, greenhouse 10 days, 0 no effect, 100 complete control

SMILES: CC1(C(=O)NC2CC(C(=O)O)C2)CN(c2cc(F)cc(Cl)c2)C(=O)O1 (racemic) [Compound 139]
- Barnyardgrass plant response rating ([1]; 16 g ai/ha, 0 to 100 scale): 10
- Barnyardgrass plant response rating (0-100) [1, 27]: 70
- Blackgrass plant response rating ([2]; 16 g ai/ha, 0 to 100 scale): 20
- Blackgrass plant response rating (0-100) [2, 27]: 80
- Corn plant response rating (corn (Zea mays) [3]; 16 g ai/ha, 0 to 100 scale): 0
- Corn plant response rating (0-100) (corn (Zea mays) [3]; [27]): 90
- Foxtail, Green plant response rating ([4]; 16 g ai/ha, 0 to 100 scale): 30
- Foxtail, Green plant response rating (0-100) [4, 27]: 90
- Kochia plant response rating (kochia (Bassia scoparia) [5]; 16 g ai/ha, 0 to 100 scale): 0
- Kochia plant response rating (0-100) (kochia (Bassia scoparia) [5]; [27]): 90
- Oat, Wild plant response rating ([6]; 16 g ai/ha, 0 to 100 scale): 20
- Oat, Wild plant response rating (0-100) [6, 27]: 80
- Ragweed plant response rating ([7]; 16 g ai/ha, 0 to 100 scale): 0
- Ragweed plant response rating (0-100) [7, 27]: 0
- Ryegrass, Italian plant response rating ([8]; 16 g ai/ha, 0 to 100 scale): 30
- Ryegrass, Italian plant response rating (0-100) [8, 27]: 90
- Soybean plant response rating (soybean (Glycine max) [9]; 16 g ai/ha, 0 to 100 scale): 0
- Soybean plant response rating (0-100) (soybean (Glycine max) [9]; [27]): 0
- Wheat plant response rating ([10]; 16 g ai/ha, 0 to 100 scale): 90
- Wheat plant response rating (0-100) [10, 27]: 90
- Barnyardgrass plant response rating (0-100) [11, 28]: 100
- Barnyardgrass plant response rating (0 to 100 scale) [11, 29]: 90
- Blackgrass plant response rating (0-100) [12, 28]: 100
- Blackgrass plant response rating (0 to 100 scale) [12, 29]: 90
- Corn plant response rating (0-100) (corn (Zea mays) [13]; [28]): 100
- Corn plant response rating (0 to 100 scale) (corn (Zea mays) [13]; [29]): 100
- Galium plant response rating (0-100) [14, 28]: 80
- Galium plant response rating (0 to 100 scale) [14, 29]: 50
- Foxtail, Green plant response rating (0-100) [15, 28]: 90
- Foxtail, Green plant response rating (0 to 100 scale) [15, 29]: 90
- Horseweed plant response rating (0-100) [16, 28]: 50
- Horseweed plant response rating (0 to 100 scale) [16, 29]: 0
- Kochia plant response rating (0-100) (kochia (Bassia scoparia) [17]; [28]): 90
- Kochia plant response rating (0 to 100 scale) (kochia (Bassia scoparia) [17]; [29]): 70
- Oat, Wild plant response rating (0-100) [18, 28]: 90
- Oat, Wild plant response rating (0 to 100 scale) [18, 29]: 70
- Pigweed, Palmer plant response rating (0-100) [19, 28]: 70
- Pigweed, Palmer plant response rating (0 to 100 scale) [19, 29]: 20
- Ragweed plant response rating (0-100) [20, 28]: 40
- Ragweed plant response rating (0 to 100 scale) [20, 29]: 40
- Ryegrass, Italian plant response rating (0-100) [21, 28]: 70
- Ryegrass, Italian plant response rating (0 to 100 scale) [21, 29]: 30
- Soybean plant response rating (0-100) (soybean (Glycine max) [22]; [28]): 60
- Soybean plant response rating (0 to 100 scale) (soybean (Glycine max) [22]; [29]): 60
- Wheat plant response rating (0-100) [23, 28]: 90
- Wheat plant response rating (0 to 100 scale) [23, 29]: 90
- Plant response rating, Barnyardgrass (0 to 100 scale, 0 is no effect and 100 is complete control) [24]: 0
- Plant response rating, Ducksalad (0 to 100 scale, 0 is no effect and 100 is complete control) [25]: 0
- Plant response rating, Rice (0 to 100 scale, 0 is no effect and 100 is complete control) (rice (Oryza sativa)): 0
- Plant response rating, Sedge, Umbrella (0 to 100 scale, 0 is no effect and 100 is complete control) [26]: 0
